{"source": "patent US6737425B1", "about": "“N,N-substituted cyclic amine derivatives” (Eisai Co., Ltd., priority 1998, dated 2004)", "system": "mice in a formalin test", "test": "Antalgic effect (I) on mice in a formalin test", "type": "in vivo", "conditions": "for average left hind leg-licking time, Mean: formalin 5 minutes later, measured for 5 minutes", "experimental": "Antalgic Effect (I) on Mice in a Formalin Test\nThe antalgic action of the typical example of the compound of the present invention (Example 1) when intravenously administered was examined in the formalin test using mice (3).\nddy Mice (male, 4-week-old) purchased from Nippon SLC Ltd. were used in the experiment.\n20.4 mg of the test compound was weighed, and 10.2 ml of 5.28% mannitol was added thereto to prepare 2 mg/ml (20 mg/kg) solution. Then, 3.8 ml of 5.28% mannitol was added to 3.8 ml of the 2 mg/ml solution to prepare 1 mg/ml (10 mg/kg) solution. Finally, 2.5 ml of 5.28% mannitol was added to 2.5 ml of the 1 mg/ml solution to prepare 0.5 mg/ml (5 mg/kg) solution. This test compound was weighed and prepared on the day when the experiment was conducted.\n30 μl of commercial 35.0 to 38.0% formaldehyde was added to 970 μl physiological saline. The resulting solution was used as 3% formalin. Because the indicated purity of this commercial formaldehyde is 35.0 to 38.0%, the 3% formalin presently prepared and used is accurately 2.84 to 3.08% formalin.\nThe treatment group in this test consisted of 4 groups in total, that is, a control group, a 5 mg/kg test compound administration group, a 10 mg/kg administration group, and a 20 mg/kg administration group, and each group consisted of 5 animals.\nThe control group was given 0.1 ml of 5.28% mannitol per 10 g of the body weight. The test compound was administered at each concentration (0.5 mg/ml, 1 mg/ml, and 2 mg/ml) in an volume of 0.1 ml per 10 g of the body weight into the 5 mg/kg group, 10 mg/kg group and 20 mg/kg group, respectively.\n5.28% mannitol was administered via the tail vein into each group given the compound of the present invention or into the control group, and the animals were placed in a transparent plastic observation cage. 5 minutes later, 20 μl of 3% formalin was subcutaneously administered into the bottom of the left hind leg of each mouse. The duration of the behavior of mouse's licking the left hind leg after administration of formalin was measured for 5 minutes and used as an indication of pain. The duration was expressed in second.\nIn the significant test, parametric one-way layout analysis of variance was conducted and then Dunnet-type multiple comparison was made (*: 0.01<p<0.05, **: p<0.01, vs. the control group). For the test, a statistical analysis assistant system with SAS 6.12 (SAS Institute Japan Ltd., Tokyo) integrated in it was used."}
{"compound": "CC(C)C(C#N)(CCCN1CCN(CCOc2ccc(F)cc2)CC1)c1ccccc1", "note": "(stereo not shown) [Example 1, 1-[(4-Cyano-5-methyl-4-phenyl)hexyl]-4-[2-(4-fluorophenoxy)ethyl]piperazine]", "values": [{"measurement": "average left hind leg-licking time, Mean", "setting": "5 mg/kg i.v. (tail vein)", "value": 49.4, "unit": "s"}, {"measurement": "licking time compared to the control group", "setting": "5 mg/kg, 10 mg/kg and 20 mg/kg i.v.", "value": "statistically significant reduction in licking time"}, {"measurement": "average left hind leg-licking time, Mean", "setting": "10 mg/kg i.v. (tail vein)", "value": 23.6, "unit": "s"}, {"measurement": "average left hind leg-licking time, Mean", "setting": "20 mg/kg i.v. (tail vein)", "value": 2.2, "unit": "s"}]}
